Test results: ChEMBL document CHEMBL5038625, “Application of the dual-tail approach for the design and synthesis of novel Thiopyrimidine-Benzenesulfonamide hybrids as selective carbonic anhydrase inhibitors” (Eur J Med Chem, 2022)

Key:
SF-539 = experiment: Antiproliferative activity against human SF-539 cells assessed as cell growth inhibition at 10 uM incubated for 24 hrs by sulforhodamine B assay; assay type: functional; settings: read-out: GI
ACHN = experiment: Antiproliferative activity against human ACHN cells assessed as cell growth inhibition at 10 uM incubated for 24 hrs by sulforhodamine B assay; assay type: functional; settings: read-out: GI
OVCAR-5 = experiment: Antiproliferative activity against human OVCAR-5 cells assessed as cell growth inhibition at 10 uM incubated for 24 hrs by sulforhodamine B assay; assay type: functional; settings: read-out: GI
COLO 205 = experiment: Antiproliferative activity against human COLO 205 cells assessed as cell growth inhibition at 10 uM incubated for 24 hrs by sulforhodamine B assay; assay type: functional; settings: read-out: GI
K562 = experiment: Antiproliferative activity against human K562 cells assessed as cell growth inhibition at 10 uM incubated for 24 hrs by sulforhodamine B assay; assay type: functional; settings: read-out: GI
DU-145 = experiment: Antiproliferative activity against human DU-145 cells assessed as cell growth inhibition at 10 uM incubated for 24 hrs by sulforhodamine B assay; assay type: functional; settings: read-out: GI
KM12 = experiment: Antiproliferative activity against human KM12 cells assessed as cell growth inhibition at 10 uM incubated for 24 hrs by sulforhodamine B assay; assay type: functional; settings: read-out: GI
MOLT-4 = experiment: Antiproliferative activity against human MOLT-4 cells assessed as cell growth inhibition at 10 uM incubated for 24 hrs by sulforhodamine B assay; assay type: functional; settings: read-out: GI
SK-MEL-5 = experiment: Antiproliferative activity against human SK-MEL-5 cells assessed as cell growth inhibition at 10 uM incubated for 24 hrs by sulforhodamine B assay; assay type: functional; settings: read-out: GI
Carbonic anhydrase 9 = Carbonic anhydrase 9 (Homo sapiens, UniProt Q16790); experiment: Inhibition of human CA9 preincubated for 15 mins by phenol red dye based stopped flow CO2 hydration assay
T47D [1] = experiment: Antiproliferative activity against human T47D cells assessed as cell growth inhibition at 10 uM incubated for 24 hrs by sulforhodamine B assay; assay type: functional; settings: read-out: GI
HT-29 = experiment: Antiproliferative activity against human HT-29 cells assessed as cell growth inhibition at 10 uM incubated for 24 hrs by sulforhodamine B assay; assay type: functional; settings: read-out: GI
HCT-15 = experiment: Antiproliferative activity against human HCT-15 cells assessed as cell growth inhibition at 10 uM incubated for 24 hrs by sulforhodamine B assay; assay type: functional; settings: read-out: GI
MCF7 [2] = experiment: Antiproliferative activity against human MCF7 cells assessed as cell growth inhibition at 10 uM incubated for 24 hrs by sulforhodamine B assay; assay type: functional; settings: read-out: GI
SN12C = experiment: Antiproliferative activity against human SN12C cells assessed as cell growth inhibition at 10 uM incubated for 24 hrs by sulforhodamine B assay; assay type: functional; settings: read-out: GI
UO-31 = experiment: Antiproliferative activity against human UO-31 cells assessed as cell growth inhibition at 10 uM incubated for 24 hrs by sulforhodamine B assay; assay type: functional; settings: read-out: GI
[3] = Antiproliferative activity against human […] cells assessed as cell growth inhibition at 10 uM incubated for 24 hrs by sulforhodamine B assay; assay type: functional; settings: read-out: GI
HCT-116 = experiment: Antiproliferative activity against human HCT-116 cells assessed as cell growth inhibition at 10 uM incubated for 24 hrs by sulforhodamine B assay; assay type: functional; settings: read-out: GI
SR = experiment: Antiproliferative activity against human SR cells assessed as cell growth inhibition at 10 uM incubated for 24 hrs by sulforhodamine B assay; assay type: functional; settings: read-out: GI
CAKI-1 = experiment: Antiproliferative activity against human CAKI-1 cells assessed as cell growth inhibition at 10 uM incubated for 24 hrs by sulforhodamine B assay; assay type: functional; settings: read-out: GI
Carbonic anhydrase 2 = Carbonic anhydrase 2 (Homo sapiens, UniProt P00918); experiment: Inhibition of human CA2 preincubated for 15 mins by phenol red dye based stopped flow CO2 hydration assay
OVCAR-4 = experiment: Antiproliferative activity against human OVCAR-4 cells assessed as cell growth inhibition at 10 uM incubated for 24 hrs by sulforhodamine B assay; assay type: functional; settings: read-out: GI
A549 = experiment: Antiproliferative activity against human A549 cells assessed as cell growth inhibition at 10 uM incubated for 24 hrs by sulforhodamine B assay; assay type: functional; settings: read-out: GI
PC-3 = experiment: Antiproliferative activity against human PC-3 cells assessed as cell growth inhibition at 10 uM incubated for 24 hrs by sulforhodamine B assay; assay type: functional; settings: read-out: GI
LOX IMVI = experiment: Antiproliferative activity against human LOX IMVI cells assessed as cell growth inhibition at 10 uM incubated for 24 hrs by sulforhodamine B assay; assay type: functional; settings: read-out: GI
M14 = experiment: Antiproliferative activity against human M14 cells assessed as cell growth inhibition at 10 uM incubated for 24 hrs by sulforhodamine B assay; assay type: functional; settings: read-out: GI
CCRF-CEM = experiment: Antiproliferative activity against human CCRF-CEM cells assessed as cell growth inhibition at 10 uM incubated for 24 hrs by sulforhodamine B assay; assay type: functional; settings: read-out: GI
RPMI-8226 = experiment: Antiproliferative activity against human RPMI-8226 cells assessed as cell growth inhibition at 10 uM incubated for 24 hrs by sulforhodamine B assay; assay type: functional; settings: read-out: GI
Malme-3M = experiment: Antiproliferative activity against human Malme-3M cells assessed as cell growth inhibition at 10 uM incubated for 24 hrs by sulforhodamine B assay; assay type: functional; settings: read-out: GI
MDA-MB-231 [4] = experiment: Antiproliferative activity against human MDA-MB-231 cells assessed as cell growth inhibition at 10 uM incubated for 24 hrs by sulforhodamine B assay; assay type: functional; settings: read-out: GI
BT-549 = experiment: Antiproliferative activity against human BT-549 cells assessed as cell growth inhibition at 10 uM incubated for 24 hrs by sulforhodamine B assay; assay type: functional; settings: read-out: GI
HOP-92 = experiment: Antiproliferative activity against human HOP-92 cells assessed as cell growth inhibition at 10 uM incubated for 24 hrs by sulforhodamine B assay; assay type: functional; settings: read-out: GI
Hs-578T = experiment: Antiproliferative activity against human HS-578T cells assessed as cell growth inhibition at 10 uM incubated for 24 hrs by sulforhodamine B assay; assay type: functional; settings: read-out: GI
NCI-H226 = experiment: Antiproliferative activity against human NCI-H226 cells assessed as cell growth inhibition at 10 uM incubated for 24 hrs by sulforhodamine B assay; assay type: functional; settings: read-out: GI
EKVX = experiment: Antiproliferative activity against human EKVX cells assessed as cell growth inhibition at 10 uM incubated for 24 hrs by sulforhodamine B assay; assay type: functional; settings: read-out: GI
OVCAR-8 = experiment: Antiproliferative activity against human OVCAR-8 cells assessed as cell growth inhibition at 10 uM incubated for 24 hrs by sulforhodamine B assay; assay type: functional; settings: read-out: GI
SNB-75 = experiment: Antiproliferative activity against human SNB-75 cells assessed as cell growth inhibition at 10 uM incubated for 24 hrs by sulforhodamine B assay; assay type: functional; settings: read-out: GI
MDA-MB-231 [5] = experiment: Antiproliferative activity against human MDA-MB-231 cells assessed as reduction in cell viability incubated for 24 hrs by sulforhodamine B assay; assay type: functional, cell-based; settings: MDA-MB-231, 24 h
RXF 393 = experiment: Antiproliferative activity against human RXF 393 cells assessed as cell growth inhibition at 10 uM incubated for 24 hrs by sulforhodamine B assay; assay type: functional; settings: read-out: GI
SF-295 = experiment: Antiproliferative activity against human SF-295 cells assessed as cell growth inhibition at 10 uM incubated for 24 hrs by sulforhodamine B assay; assay type: functional; settings: read-out: GI
UACC-62 = experiment: Antiproliferative activity against human UACC-62 cells assessed as cell growth inhibition at 10 uM incubated for 24 hrs by sulforhodamine B assay; assay type: functional; settings: read-out: GI
NCI-H460 = experiment: Antiproliferative activity against human NCI-H460 cells assessed as cell growth inhibition at 10 uM incubated for 24 hrs by sulforhodamine B assay; assay type: functional; settings: read-out: GI
T47D [6] = experiment: Antiproliferative activity against human T47D cells assessed as reduction in cell viability incubated for 24 hrs by sulforhodamine B assay; assay type: functional, cell-based
SNB-19 = experiment: Antiproliferative activity against human SNB-19 cells assessed as cell growth inhibition at 10 uM incubated for 24 hrs by sulforhodamine B assay; assay type: functional; settings: read-out: GI
A498 = experiment: Antiproliferative activity against human A498 cells assessed as cell growth inhibition at 10 uM incubated for 24 hrs by sulforhodamine B assay; assay type: functional; settings: read-out: GI
NCI-H522 = experiment: Antiproliferative activity against human NCI-H522 cells assessed as cell growth inhibition at 10 uM incubated for 24 hrs by sulforhodamine B assay; assay type: functional; settings: read-out: GI
HL-60 = experiment: Antiproliferative activity against human HL-60 cells assessed as cell growth inhibition at 10 uM incubated for 24 hrs by sulforhodamine B assay; assay type: functional; settings: read-out: GI
786-0 = experiment: Antiproliferative activity against human 786-0 cells assessed as cell growth inhibition at 10 uM incubated for 24 hrs by sulforhodamine B assay; assay type: functional; settings: read-out: GI
MDA-MB-435 = experiment: Antiproliferative activity against human MDA-MB-435 cells assessed as cell growth inhibition at 10 uM incubated for 24 hrs by sulforhodamine B assay; assay type: functional; settings: read-out: GI
MCF7 [7] = experiment: Antiproliferative activity against human MCF7 cells assessed as reduction in cell viability incubated for 24 hrs by sulforhodamine B assay; assay type: functional, cell-based; settings: MCF7, 24 h
MDA-MB-468 = experiment: Antiproliferative activity against human MDA-MB-468 cells assessed as cell growth inhibition at 10 uM incubated for 24 hrs by sulforhodamine B assay; assay type: functional; settings: read-out: GI
U-251 = experiment: Antiproliferative activity against human U-251 cells assessed as cell growth inhibition at 10 uM incubated for 24 hrs by sulforhodamine B assay; assay type: functional; settings: read-out: GI

## NS(=O)(=O)c1ccc(Nc2cc(-c3ccccc3)nc(SCC(=O)c3ccc(Br)cc3)n2)cc1
SF-539
  inhibition of growth at 10 µM: 5.75%
ACHN
  inhibition of growth at 10 µM: 9.12%
OVCAR-5
  inhibition of growth at 10 µM: 5.54%
COLO 205
  inhibition of growth at 10 µM: 9.34%
K562
  inhibition of growth at 10 µM: 22.8%
DU-145
  inhibition of growth at 10 µM: 5.84%
KM12
  inhibition of growth at 10 µM: 11.9%
MOLT-4
  inhibition of growth at 10 µM: 15.8%
SK-MEL-5
  inhibition of growth at 10 µM: 5.28%
Carbonic anhydrase 9
  Ki: 322 nM
T47D [1]
  inhibition of growth at 10 µM: 10.3%
HT-29
  inhibition of growth at 10 µM: 21.8%
HCT-15
  inhibition of growth at 10 µM: 28.4%
MCF7 [2]
  inhibition of growth at 10 µM: 26.9%
SN12C
  inhibition of growth at 10 µM: 13.3%
UO-31
  inhibition of growth at 10 µM: 19.4%
[3]
  inhibition of growth at 10 µM: 14.2%
HCT-116
  inhibition of growth at 10 µM: 8.87%
SR
  inhibition of growth at 10 µM: 15.7%
CAKI-1
  inhibition of growth at 10 µM: 19.4%
Carbonic anhydrase 2
  Ki: > 20 µM
OVCAR-4
  inhibition of growth at 10 µM: 7.69%
A549
  inhibition of growth at 10 µM: 6.27%
PC-3
  inhibition of growth at 10 µM: 8.3%
LOX IMVI
  inhibition of growth at 10 µM: 12.7%
M14
  inhibition of growth at 10 µM: 7.75%
CCRF-CEM
  inhibition of growth at 10 µM: 8.13%

## COc1ccc(OC)c(-c2nc(SCC(=O)c3ccccc3)nc(Nc3ccc(S(N)(=O)=O)cc3)c2C#N)c1
RPMI-8226
  inhibition of growth at 10 µM: 18.1%
SF-539
  inhibition of growth at 10 µM: 27.1%
ACHN
  inhibition of growth at 10 µM: 6.95%
Malme-3M
  inhibition of growth at 10 µM: 6.7%
MDA-MB-231 [4]
  inhibition of growth at 10 µM: 23.6%
BT-549
  inhibition of growth at 10 µM: 8.03%
K562
  inhibition of growth at 10 µM: 14.6%
HOP-92
  inhibition of growth at 10 µM: 52%
Hs-578T
  inhibition of growth at 10 µM: 6.75%
DU-145
  inhibition of growth at 10 µM: 8.97%
KM12
  inhibition of growth at 10 µM: 8.89%
MOLT-4
  inhibition of growth at 10 µM: 30.1%
SK-MEL-5
  inhibition of growth at 10 µM: 5.91%
NCI-H226
  inhibition of growth at 10 µM: 7.28%
Carbonic anhydrase 9
  Ki: 87.7 nM
T47D [1]
  inhibition of growth at 10 µM: 20.4%
EKVX
  inhibition of growth at 10 µM: 11.3%
OVCAR-8
  inhibition of growth at 10 µM: 7.32%
SNB-75
  inhibition of growth at 10 µM: 18.4%
MDA-MB-231 [5]
  IC50: > 100 µM
HCT-15
  inhibition of growth at 10 µM: 26.3%
MCF7 [2]
  inhibition of growth at 10 µM: 14.7%
RXF 393
  inhibition of growth at 10 µM: 25.6%
SN12C
  inhibition of growth at 10 µM: 14.1%
UO-31
  inhibition of growth at 10 µM: 29.1%
SF-295
  inhibition of growth at 10 µM: 10.3%
[3]
  inhibition of growth at 10 µM: 10.1%
HCT-116
  inhibition of growth at 10 µM: 7.67%
SR
  inhibition of growth at 10 µM: 22.7%
UACC-62
  inhibition of growth at 10 µM: 5.35%
NCI-H460
  inhibition of growth at 10 µM: 10.9%
T47D [6]
  IC50: > 100 µM
SNB-19
  inhibition of growth at 10 µM: 9.28%
CAKI-1
  inhibition of growth at 10 µM: 23.3%
A498
  inhibition of growth at 10 µM: 30.7%
NCI-H522
  inhibition of growth at 10 µM: 6.74%
HL-60
  inhibition of growth at 10 µM: 8.52%
786-0
  inhibition of growth at 10 µM: 12.6%
OVCAR-4
  inhibition of growth at 10 µM: 14.9%
A549
  inhibition of growth at 10 µM: 10.8%
MDA-MB-435
  inhibition of growth at 10 µM: 7.57%
PC-3
  inhibition of growth at 10 µM: 20.6%
MCF7 [7]
  IC50: > 100 µM
LOX IMVI
  inhibition of growth at 10 µM: 17.7%
MDA-MB-468
  inhibition of growth at 10 µM: 18.3%
CCRF-CEM
  inhibition of growth at 10 µM: 10.7%
U-251
  inhibition of growth at 10 µM: 9.25%
